Test results: patent publication US4288438A, “Nitrogen-containing heterocyclic ring derivatives and analgesic and anti-inflammatory compositions and methods employing them” (priority 1976, dated 1981)

Columns and labels:
writhings (acetic acid) = experiment: Whittle's method: acetic acid writhing, oral (Table 2); assay type: in vivo, Male ICR-Mice; settings: mouse, 0.6% acetic acid i.p.
Description: (§1) Male ICR-Mice (weighting 25-35 g.), one group being 12 mice, fasted overnight were used in this test. The sample was orally administered, and 20 minutes after, 5 ml./Kg. of 0.4% Evance blue was injected by intravenously and further 10 minutes after, 10 ml./Kg. of 0.6% acetic acid was injected by intraperitoneally. The number of writhings after 20 minutes since the administration of acetic acid was recorded and 10 minutes after since then, the mice were killed by dislocation of the neck, the dye leaked in the abdominal cavity was washed out with 5 ml. of 0.9% saline to make the total amount 10 ml., and thereafter furs, blood corpuscles, etc., intermingled were removed by centrifugal separation at 3,000 r.p.m. for 5 minutes. Furthermore, for preventing turbidity caused by protein, 0.1 ml. of an aqueous 0.1 normal sodium hydroxide was added and then the absorbance at 590 nm was measured. The inhibition ratio of the sample administered rat groups to control groups was calculated.
(§2) In addition, the test samples used in the aforesaid tests (a), (b), (c) and (d) were prepared by suspending the test compounds, in the cases of using the compounds of Test Nos. 1,2,4,5,6,8,9,10,11, 16-21 and p henylbutazone,in an aqueous 0.5% methyl cellulose solution, dissolving the test compounds, in the cases of using the compounds of Test Nos. 13,14 and 15, in aqueous solution of 0.5% methyl cellulose, and further dissolving the test compounds, in the cases of using the compounds of Test Nos. 3,7 and 12 and aminopyrine, in distilled water.

[1] = tested on: Permeability (dye leaked in the abdominal cavity); experiment: Whittle's method: permeability, dye leaked in the abdominal cavity, oral (Table 2); assay type: in vivo, Male ICR-Mice
Description: (b) Whittle's method (British J. Pharmacol.; 22, 246-253 (1964))
as §1, §2

[2] = tested on: Hyperthemia caused by Brewer's yeast; experiment: Antipyretic effect, Brewer's yeast hyperthermia, rectal temperature (Table 3); assay type: in vivo, Male Wister rats; settings: rat, 50mg/kg p.o., in °C (unit assumed); for Rectal temperature (mean ± SE) 1 hour / Rectal temperature (mean ± SE) 2 hours / Rectal temperature (mean ± SE) 4 hours: * p<0.05 vs before for Test Nos. 1, 2 and Aminopyrine; for Rectal temperature (mean ± SE) 6 hours: * p<0.05 vs before for Test No. 2 and Aminopyrine; for Rectal temperature (mean ± SE) before: before administration
Description: Male Wister rats (weighting 130-150 g.), one group being 5 rats, were used. Hyperthemia was caused by subcutaneous injection of 2 ml./rat of 20% Brewer's yeast suspension. 18 hours later, the rats showing a rise in temperature exceeding 1° C. were selected and allocated into groups each consisting of 5 rats. The sample was orally administered and then the body temperature was measured with the passage of time for 6 hours since then. In addition, the body temperature was measured by measuring the temperature in the rectum by means of a thermister thermometer.
as §2

[3] = tested on: Carrageenin-induced edema; experiment: Carrageenin-induced edema, hind paw, oral (Table 1); assay type: in vivo, Male Wister rats; settings: rat, 1 hour before Carrageenin, edema weight after 3 hours; for inhibition in vivo at 50 mg/kg: po; for Inhibition (%) p.o. 50mg/kg / inhibition in vivo at 50 mg/kg: p.o. 50 mg/kg
Description: (a) Carrageenin-induced edema
Male Wister rats (weighting 130-170 g.), one group being 6 rats, fasted overnight were used. According to […] [Proc. Soc. […] After 3 hours, each rat was sacrificed by chloroform and the hind paw was cut and weighed immediately. By using the value obtained by subtracting the weight of the untreated hind paw from the weight of the hind paw having injected therein the Carrageenin as the weight of edema, the inhibitory ratio of the sample administered rat groups to control groups was calculated. The sample was orally administered one hour before the injection of Carrageenin.
as §2

[4] = Acute toxicity, mouse (Table 4); assay type: in vivo
[5] = Acute toxicity, rat (Table 4); assay type: in vivo, Male Wister rats; settings: 500 mg/Kg oral, 7 days, deaths/animals
Description: Male Wister rats (weighting 130-170 g.), one group being 5 rats, fasted overnight were used in this test.
as §2

[6] = mouse, 25 mg/kg p.o., Evance blue i.v., acetic acid i.p., 590 nm
[7] = mouse, 50 mg/kg p.o., Evance blue i.v., acetic acid i.p., 590 nm
[8] = deaths/animals, method given for rats only (500 mg/Kg oral, 7 days)

## Cc1c(N(C)C)c(=O)n(-c2ccccc2)n1C [Aminopyrine, reference compound]
Writhings (acetic acid)
  Inhibition (%) Writhing S 25mg/kg p.o.: 29.6%
  Inhibition (%) Writhing S 50mg/kg p.o.: 58.1%
[1]; [6]
  Inhibition (%) Permeability 25mg/kg p.o.: 28.5%
[1]; [7]
  Inhibition (%) Permeability 50mg/kg p.o.: 41.7%
[2]
  Rectal temperature (mean ± SE) 1 hour: 37.92 ± 0.09
  Rectal temperature (mean ± SE) 2 hours: 37.49 ± 0.10
  Rectal temperature (mean ± SE) 4 hours: 37.39 ± 0.07
  Rectal temperature (mean ± SE) 6 hours: 37.76 ± 0.18
  Rectal temperature (mean ± SE) before: 39.24 ± 0.14

## CN1CCCn2c1cc(-c1ccccc1)cc2=O [Test No. 1]
[3]
  Inhibition (%) p.o. 50mg/kg: 71.5%
Writhings (acetic acid)
  Inhibition (%) Writhing S 25mg/kg p.o.: 41.8%
  Inhibition (%) Writhing S 50mg/kg p.o.: 87.6%
[1]; [6]
  Inhibition (%) Permeability 25mg/kg p.o.: 18.0%
[1]; [7]
  Inhibition (%) Permeability 50mg/kg p.o.: 44.4%
[2]
  Rectal temperature (mean ± SE) 1 hour: 37.07 ± 0.15
  Rectal temperature (mean ± SE) 2 hours: 36.17 ± 0.32
  Rectal temperature (mean ± SE) 4 hours: 36.12 ± 0.17
  Rectal temperature (mean ± SE) 6 hours: 38.52 ± 0.47
  Rectal temperature (mean ± SE) before: 38.82 ± 0.05

## O=c1cc(-c2ccccc2)cc2n1CCN2 [Test No. 2]
[3]
  Inhibition (%) p.o. 50mg/kg: 71.6%
  Inhibition (%) p.o. 100mg/kg: 76.1%
Writhings (acetic acid)
  Inhibition (%) Writhing S 25mg/kg p.o.: 28.9%
  Inhibition (%) Writhing S 50mg/kg p.o.: 52.6%
[1]; [6]
  Inhibition (%) Permeability 25mg/kg p.o.: 26.9%
[1]; [7]
  Inhibition (%) Permeability 50mg/kg p.o.: 51.1%
[2]
  Rectal temperature (mean ± SE) 1 hour: 37.80 ± 0.10
  Rectal temperature (mean ± SE) 2 hours: 36.74 ± 0.24
  Rectal temperature (mean ± SE) 4 hours: 36.77 ± 0.39
  Rectal temperature (mean ± SE) 6 hours: 37.51 ± 0.57
  Rectal temperature (mean ± SE) before: 38.89 ± 0.21
[4]; in vivo
  Number of deaths Mouse: 0/5

## Cc1cc2n(c(=O)c1)CCN2C [Test No. 3, 1,7-dimethyl-5-oxo-1,2,3,5-tetrahydroimidazo[1,2-a]pyridine]
[3]
  inhibition in vivo at 50 mg/kg: 52.3%
  Inhibition (%) p.o. 100mg/kg: 51.5%
Writhings (acetic acid)
  Inhibition (%) Writhing S 25mg/kg p.o.: 52.1%
  Inhibition (%) Writhing S 50mg/kg p.o.: 75.3%
[1]; [6]
  Inhibition (%) Permeability 25mg/kg p.o.: 18.5%
[1]; [7]
  Inhibition (%) Permeability 50mg/kg p.o.: 46.2%
[4]; [8]
  Number of deaths Mouse: 1/5

## O=c1cc(-c2ccccc2)cc2n1CC[S+]2[O-] (centres unmarked) [Test No. 4]
[5]
  Number of deaths Rat: 2/5
[4]; [8]
  Number of deaths Mouse: 1/5

## CN1CCn2c1cc(-c1ccccc1)cc2=O [Test No. 5]
Writhings (acetic acid)
  Inhibition (%) Writhing S 25mg/kg p.o.: 41.2%
  Inhibition (%) Writhing S 50mg/kg p.o.: 67.4%
[1]; [6]
  Inhibition (%) Permeability 25mg/kg p.o.: 20.0%
[1]; [7]
  Inhibition (%) Permeability 50mg/kg p.o.: 42.1%

## O=c1cc(-c2ccccc2)cc2n1CCCN2 [Test No. 6]
[3]
  Inhibition (%) p.o. 50mg/kg: 72.7%
  Inhibition (%) p.o. 100mg/kg: 80.5%
Writhings (acetic acid)
  Inhibition (%) Writhing S 25mg/kg p.o.: 69.0%
  Inhibition (%) Writhing S 50mg/kg p.o.: 91.5%
[1]; [6]
  Inhibition (%) Permeability 25mg/kg p.o.: 28.4%
[1]; [7]
  Inhibition (%) Permeability 50mg/kg p.o.: 59.0%

## CN1CCn2c1ccc(-c1ccccc1)c2=O [Test No. 7, 1-methyl-5-oxo-6-phenyl-1,2,3,5-tetrahydroimidazo[1,2-a]pyridine]
[3]
  inhibition in vivo at 50 mg/kg: 75%
  Inhibition (%) p.o. 100mg/kg: 79.5%
Writhings (acetic acid)
  Inhibition (%) Writhing S 25mg/kg p.o.: 59.1%
  Inhibition (%) Writhing S 50mg/kg p.o.: 95.3%
[1]; [6]
  Inhibition (%) Permeability 25mg/kg p.o.: 49.3%
[1]; [7]
  Inhibition (%) Permeability 50mg/kg p.o.: 63.8%

## Cc1cc2n(c(=O)c1)CCCN2C [Test No. 8]
[3]
  Inhibition (%) p.o. 50mg/kg: 53.3%
Writhings (acetic acid)
  Inhibition (%) Writhing S 25mg/kg p.o.: 35.6%
  Inhibition (%) Writhing S 50mg/kg p.o.: 66.4%
[1]; 25 mg/kg
  Inhibition (%) Permeability 25mg/kg p.o.: 32.4%
[1]; 50 mg/kg
  Inhibition (%) Permeability 50mg/kg p.o.: 25.8%

## CCN1CCn2c1cc(-c1ccccc1)cc2=O [Test No. 9]
[5]
  Number of deaths Rat: 0/5
[4]; [8]
  Number of deaths Mouse: 0/5

## O=c1cc(-c2ccccc2)cc2n1CCS2 [Test No. 10]
[5]
  Number of deaths Rat: 0/5
[4]; [8]
  Number of deaths Mouse: 0/5

## CN1CCCn2c1cc(-c1ccc(Cl)cc1)cc2=O [Test No. 11]
[3]
  Inhibition (%) p.o. 50mg/kg: 47.1%

## CN1CCn2c1cc1c(c2=O)CCC1 [Test No. 13, 1-methyl-5-oxo-1,2,3,6,7,8-hexahydroimidazo[1,2-b]1H-2-pyrindine]
[3]
  Inhibition (%) p.o. 50mg/kg: 57.1%

## CN1CCn2c1cc1c(c2=O)CCCC1 [Test No. 14, 1-methyl-5-oxo-1,2,3,5,6,7,8,9-octahydroimidazo[1,2-b]isoquinoline]
[3]
  inhibition in vivo at 50 mg/kg: 64.1%

## CN1CCCn2c1cc1c(c2=O)CCCC1 [Test No. 15, 1-methyl-6-oxo-1,2,3,4,6,7,8,9,10-nonahydropyrimido[1,2-b]isoquinoline]
[3]
  inhibition in vivo at 50 mg/kg: 52.4%

## Cc1cc2n(c(=O)c1-c1ccccc1)CCN2C [Test No. 16, 1,7-dimethyl-5-oxo-6-phenyl-1,2,3,5-tetrahydroimidazo[1,2-a]pyridine]
[3]
  inhibition in vivo at 50 mg/kg: 47.7%

## Cc1c(-c2ccccc2)cc2n(c1=O)CCCN2C [Test No. 17, 1,7-dimethyl-6-oxo-8-phenyl-1,2,3,4,6-pentahydropyrido[1,2-a]pyrimidine]
[3]
  inhibition in vivo at 50 mg/kg: 45.7%

## Cc1cc(=O)n2c(c1-c1ccccc1)N(C)CC2 [Test No. 18, 1,7-dimethyl-5-oxo-8-phenyl-1,2,3,5-tetrahydroimidazo[1,2-a]pyridine]
[3]
  Inhibition (%) p.o. 100mg/kg: 41.0%

## Cc1cc(=O)n2c(c1-c1ccccc1)NCCC2 [Test No. 19]
[3]
  Inhibition (%) p.o. 100mg/kg: 46.7%

## CC1CNc2cc(-c3ccccc3)cc(=O)n21 (centres unmarked) [Test No. 20]
[3]
  Inhibition (%) p.o. 50mg/kg: 72.2%

## O=c1cc(-c2ccccc2)cc2sccn12 [Test No. 21]
[3]
  Inhibition (%) p.o. 50mg/kg: 46.9%

## CCCCC1C(=O)N(c2ccccc2)N(c2ccccc2)C1=O [phenylbutazone, reference compound]
[3]
  inhibition in vivo at 50 mg/kg: 44.5%
  Inhibition (%) p.o. 100mg/kg: 51.2%
